Consider 4 compounds from US7341750B2, “Compound isolated from Ginkgo biloba bark, isolation method thereof and antiplatelet composition containing the same” (Candleflower Co., Ltd., priority 2006, dated 2008).

What all share (type): cell-based
Experiment [1] concerns ADP-induced platelet aggregation. In words: ADP-stimulated platelet aggregation in concentrated human platelet-rich plasma (aggregometer). The settings on record: aggregation factor ADP, human concentrated PRP, —: no effect. The protocol:
(§1) To measure the activity against collagen-stimulated platelet aggregation of the novel compound identified from the Ginkgo biloba bark, concentrated human platelet-rich-plasma (PRP) was first prepared. The PRP used in the present invention was obtained by collecting blood from volunteers in Hallym University Medical Center, centrifuging the blood at 1,000 rpm and room temperature for 10 minutes to collect pure supernatant PRP and centrifuging the supernatant PRP at 3,000 rpm and room temperature for 10 minutes. The obtained PRP was separated into platelet-poor plasma (PPP) and platelets (PLTs). Then, concentrated PRP was prepared in the following manner. That is, platelets (PLTs) were suspended in a suitable amount of the supernatant PPP and measured for absorbance at 660 nm using a UV/visible spectrophotometer. Based on the measured absorbance, the suspension was further diluted with an excess of PPP to prepare concentrated PRP containing 5×10^8 platelets/ml. Herein, an OD value of 1.1 at 660 nm means 1×10^8 PLTs. A washing buffer used in the present invention was a pH 6.5 buffer containing 129 mM NaCl, 10.9 mM sodium citrate dihydrate, 8.9 mM NaHCO3, 1 mg/ml glucose, 10 mM tris-hydroxymethylaminomethane, 2.8 mM KCl, 0.8 mM KH2PO4 and 2 mM EDTA. Also, a suspension buffer used in this test example was a pH 6.9 buffer, which was the same as said washing buffer, except that it contained no EDTA. The platelet aggregation inhibitory effect of the novel compound was examined using the prepared concentrated PRP in the following manner. First, the concentrated PRP was used to make 500 μl of an in vitro reaction system. For use as a control group, the concentrated PRP was stabilized at 37° C. for 3 minutes and treated with collagen (Chrono-LogCo.) as a stimulating agent at a concentration of 10 μg/ml, and the aggregation of platelets in the reaction system was induced for 5 minutes. Meanwhile, the same reaction system as described above was treated with the novel compound, was allowed to react with the novel compound for 3 minutes, was stimulated with collagen for 6 minutes according to the same method as described above so as to induce platelet aggregation, and then was measured for aggregated platelets. The aggregation of platelets was measured with a change in light transmission using an aggregometer (Chrono-Log Co.) at 37° C. The measurement results are shown in Table 1 below and FIGS. 6, 7 and 8. Table 1 summarizes the antiplatelet aggregation activities of aspirin, the novel compound and ginkgolide A and B against platelet aggregation factors, including ADP, collagen and arachidonic acid. […]

In experiment [2] the test system is collagen-stimulated platelet aggregation. Description: Collagen-stimulated platelet aggregation in concentrated human platelet-rich plasma (aggregometer). The settings on record: human concentrated PRP; for IC50: aggregation factor collagen 10 μg/ml, 37° C., read-out: IC50 antiplatelet aggregation activity, Collagen. As for the experimental part:
To measure the activity against collagen-stimulated platelet aggregation of the novel compound identified from the Ginkgo biloba bark, concentrated human platelet-rich-plasma (PRP) was first prepared. The PRP used in the present invention was obtained by collecting blood from volunteers in Hallym University Medical Center, centrifuging the blood at 1,000 rpm and room temperature for 10 minutes to collect pure supernatant PRP and centrifuging the supernatant PRP at 3,000 rpm and room temperature for 10 minutes. The obtained PRP was separated into platelet-poor plasma (PPP) and platelets (PLTs). Then, concentrated PRP was prepared in the following manner. That is, platelets (PLTs) were suspended in a suitable amount of the supernatant PPP and measured for absorbance at 660 nm using a UV/visible spectrophotometer. Based on the measured absorbance, the suspension was further diluted with an excess of PPP to prepare concentrated PRP containing 5×10^8 platelets/ml. Herein, an OD value of 1.1 at 660 nm means 1×10^8 PLTs. A washing buffer used in the present invention was a pH 6.5 buffer containing 129 mM NaCl, 10.9 mM sodium citrate dihydrate, 8.9 mM NaHCO3, 1 mg/ml glucose, 10 mM tris-hydroxymethylaminomethane, 2.8 mM KCl, 0.8 mM KH2PO4 and 2 mM EDTA. Also, a suspension buffer used in this test example was a pH 6.9 buffer, which was the same as said washing buffer, except that it contained no EDTA. The platelet aggregation inhibitory effect of the novel compound was examined using the prepared concentrated PRP in the following manner. First, the concentrated PRP was used to make 500 μl of an in vitro reaction system. For use as a control group, the concentrated PRP was stabilized at 37° C. for 3 minutes and treated with collagen (Chrono-LogCo.) as a stimulating agent at a concentration of 10 μg/ml, and the aggregation of platelets in the reaction system was induced for 5 minutes. Meanwhile, the same reaction system as described above was treated with the novel compound, was allowed to react with the novel compound for 3 minutes, was stimulated with collagen for 6 minutes according to the same method as described above so as to induce platelet aggregation, and then was measured for aggregated platelets. The aggregation of platelets was measured with a change in light transmission using an aggregometer (Chrono-Log Co.) at 37° C. The measurement results are shown in Table 1 below and FIGS. 6, 7 and 8. Table 1 summarizes the antiplatelet aggregation activities of aspirin, the novel compound and ginkgolide A and B against platelet aggregation factors, including ADP, collagen and arachidonic acid. […] In the case of the group treated with the novel compound, when arachidonic acid was used as the aggregation factor, the aggregation of platelets occurred only upon stimulation with 1,000 μM (i.e., 1 mM) or higher concentration of arachidonic acid.

Experiment [3] has as its system arachidonic acid-stimulated platelet aggregation. Description: Arachidonic acid-stimulated platelet aggregation in concentrated human platelet-rich plasma (aggregometer). The settings on record: for arachidonic acid-stimulated platelet aggregation in treated groups: groups treated with the compound. As for the experimental part:
as §1

The mark [4] stands for this setting: arachidonic acid as aggregation factor.

Where two headings read alike, the source gives them in different places.

For orientation: IC50 means the midpoint of a concentration-inhibition curve. As to `CC(=O)Oc1ccccc1C(=O)O` [Aspirin], the IC50 in experiment [1] (Platelet, read-out: IC50 antiplatelet aggregation activity, ADP) stood at 316 µM; in experiment [2] (Platelet) it was 203 µM. Besides, in experiment [2], the “inhibitory activity on collagen-stimulated platelet aggregation (FIGS. 6-8)” value (“inhibitory activity” for short) was “inhibited platelet aggregation in a concentration-dependent manner”.

Regarding `C[C@@H]1C(=O)O[C@H]2C[C@@]34[C@H]5C[C@@H](C(C)(C)C)[C@]36[C@@H](OC(=O)[C@@H]6O)O[C@@]4(C(=O)O5)[C@]21O` [Gingkolide A], the “arachidonic acid-stimulated platelet aggregation in treated groups” value in experiment [3] (setting [4]) is on record as “did not occur”. Moreover, the “IC50 antiplatelet aggregation activity, ADP” value in experiment [1] is reported as “did not show an effect”. Further, in experiment [2], the IC50 came out at 482 µM and the “inhibitory activity” value was “inhibited collagen-stimulated platelet aggregation in a concentration-dependent manner”.

Turning to `C[C@@H]1C(=O)O[C@H]2[C@@H](O)[C@@]34[C@H]5C[C@@H](C(C)(C)C)[C@]36[C@@H](OC(=O)[C@@H]6O)O[C@@]4(C(=O)O5)[C@@]12O` [Gingkolide B], the “arachidonic acid-stimulated platelet aggregation in treated groups” value in experiment [3] (setting [4]) was “did not occur”. Further, the “IC50 antiplatelet aggregation activity, ADP” value in experiment [1] is on record as “did not show an effect”. In experiment [2], the half-maximal inhibitory concentration (IC50) came to 480 µM and the “inhibitory activity” value is listed as “inhibited collagen-stimulated platelet aggregation in a concentration-dependent manner”.

Turning to `COc1cc(-c2oc3cc(OC)c(CCCO)cc3c2C=O)ccc1O` [Novel compound, 5-(3-hydroxyprophyl)-6-methoxy-2-(3′-methoxy-4′-hydroxyphenyl)-3-benzo[b]furancarbaldehyde], the 50% inhibitory concentration (IC50) in experiment [3] (Platelet, aggregation factor arachidonic acid, human concentrated PRP, —: no effect, read-out: IC50 antiplatelet aggregation activity, AA) was over 1000 µM; in experiment [2] (Platelet), 680 µM. For the same compound, the “concentration of arachidonic acid at which aggregation of platelets occurred in the treated group” value in experiment [3] (arachidonic acid as aggregation factor, group treated with the compound) was ≥ 1,000 μM. Further, the “IC50 antiplatelet aggregation activity, ADP” value in experiment [1] is recorded as “did not show an effect”. In experiment [2], the “inhibitory activity” value is given as “inhibited collagen-stimulated platelet aggregation in a concentration-dependent manner”.
